Measurements from US8592405B2, “Synergistic antimicrobial composition” (Dow Global Technologies LLC, priority 2009, dated 2013).
Values joined by “and” are separate entries in the source; they are usually repeats but may differ in a detail not shown here. Equal entries are not always repeated.

Experiments:
Assay type in all cases: cell-based
[1] = system: Calothrix parientina (Cp); assay: Algal efficacy testing, modified ASTM 5589 (12-well, dry paint film); conditions: three weeks; for % inhibition: at the Total conc; for Total conc, ppm: total biocide in paint taken as minimum inhibitory concentration
Experimental: (§1) Samples of white acrylic latex paint free of biocides were prepared in 50 ml aliquots. Each biocide was post added to give the necessary active ingredient concentration in the paint. The total biocides concentrations tested were 750, 1500, 2500 and 5000 ppm. After biocides addition, each sample was hand mixed for a minimum of 30 sec, followed by a 3 min run on the paint shaker (RED DEVIL). Each of the paint samples as well as a control sample (containing no biocide) were used to prepare films on black plastic-vinyl chloride/acetate copolymer panels (LENETA, Mahwah, N.J.) using a 3 mil bird bar applicator. The panels were thoroughly dried for 5 days avoiding direct exposure to sunlight. Square discs (15 mm^2) were cut out from each panel and were used as the substrate for fungal and algal efficacy tests. This sample size allowed for an agar border when the sample disc was placed into the well of the test plate.
(§2) The appropriate media (BOLD'S 3N for Chlorophytes, BG-11 for Cyanobacteria, and PDA for fungi) were used to support microbial growth. The test plates were maintained at room temp (25° C.-26° C.), in a cycled light-dark environment, for 3 weeks for algae. Plates for fungal challenge tests were maintained at 30C for three weeks. At the end of incubation period the samples were scored for percent area covered by visible microbial growth.
(§3) ASTM 5589 is a standard accelerated test method for determining resistance of various coatings (including paints) to algal defacement. To accommodate for high-throughput screening, this method was scaled down from petri plates to 12-well plates. A single coupon was placed with a pair of sterile forceps at the center of the agar plug (on top) with the painted surface facing upwards. Each well was inoculated with 150 μl of organism (1×10^8 cfu/ml) making sure that the whole surface (paint film as well as the agar surrounding it) was evenly covered. The plates were incubated at room temp (25° C.-26° C.) with cyclic exposure to light (OTT-Lite model #OTL4012P, 40 Watt, 26 KLumen) and dark phases, for a period of three weeks. The total area covered was evaluated at the end of each week according to percent area covered in 5% increments. While rating the plates, notations were made for zones of inhibition.
(§4) The SI is calculated based on F. C. Kull et.

Nostoc commune (Nc) = assay: as above; conditions: three weeks; for % inhibition: at the Total conc; for Total conc, ppm: total biocide in paint taken as minimum inhibitory concentration
Experimental: as §1, §2, §3, §4

Oscillatoria sp. (Os) = assay: as above; conditions: three weeks; for % inhibition: at the Total conc; for Total conc, ppm: total biocide in paint taken as minimum inhibitory concentration
Experimental: as §1, §2, §3, §4

[2] = system: Chlorella sp. + Chlorella kessleri (Cs + Ck); assay: as above; conditions: three weeks; for % inhibition: at the Total conc; for Total conc, ppm: total biocide in paint taken as minimum inhibitory concentration
Experimental: as §1, §2, §3, §4

[3] = system: Trentepohlia aurea + Trentepohlia odorata (Ta + To); assay: as above; conditions: three weeks; for % inhibition: at the Total conc; for Total conc, ppm: total biocide in paint taken as minimum inhibitory concentration
Experimental: as §1, §2, §3, §4

[4] = system: Alternaria alternata (Aa); assay: Fungal efficacy testing, modified ASTM 5590 (12-well, dry paint film); conditions: three weeks; for % inhibition: at the Total conc; for Total conc, ppm: total biocide in paint taken as minimum inhibitory concentration, 30 C
Experimental: as §1, §2
(§5) ASTM 5590 is a standard accelerated test method for determining resistance of various coatings (including paints) to fungal defacement. To accommodate for high-throughput screening, this method was scaled down from petri plates to 12-well plates. To set up the test, an agar plug was placed at the bottom of each well of the sterile 12-well plate. A single coupon was placed with a pair of sterile forceps at the center of the agar plug (on top) with the painted surface facing upwards. Each well was inoculated with 150 μl of organism (1×10^6 cfu/ml) making sure that the whole surface (paint film as well as the agar surrounding it) was evenly covered. The plates were incubated at 30° C. in presence of moisture, for a period of three weeks. The total percent area covered was evaluated and recorded at the end of each week after the 2nd week and recorded in increments of 5%.
as §4

[5] = system: Aureobasidium pullulans (Ap); assay: as above; conditions: three weeks; for % inhibition: at the Total conc; for Total conc, ppm: total biocide in paint taken as minimum inhibitory concentration, 30 C
Experimental: as §1, §2, §5, §4

[6] = system: Cladosporium herbarum (Ch); assay: as above; conditions: three weeks; for % inhibition: at the Total conc; for Total conc, ppm: total biocide in paint taken as minimum inhibitory concentration, 30 C
Experimental: as §1, §2, §5, §4

[7] = system: Stachybotris chartarum (Sc); assay: as above; conditions: three weeks; for % inhibition: at the Total conc; for Total conc, ppm: total biocide in paint taken as minimum inhibitory concentration, 30 C
Experimental: as §1, §2, §5, §4

[8] = system: Penicillium funiculosum (Pf); assay: as above; conditions: three weeks; for % inhibition: at the Total conc; for Total conc, ppm: total biocide in paint taken as minimum inhibitory concentration, 30 C
Experimental: as §1, §2, §5, §4

Row | Structure (SMILES) | % inhibition [1] | Total conc, ppm [1] | % inhibition (Nostoc commune (Nc)) | Total conc, ppm (Nostoc commune (Nc)) | % inhibition (Oscillatoria sp. (Os)) | Total conc, ppm (Oscillatoria sp. (Os)) | % inhibition [2] | Total conc, ppm [2] | % inhibition [3] | Total conc, ppm [3] | % inhibition [4] | Total conc, ppm [4] | % inhibition [5] | Total conc, ppm [5] | % inhibition [6] | Total conc, ppm [6] | % inhibition [7] | Total conc, ppm [7] | % inhibition [8] | Total conc, ppm [8]
1 | CCCCCCCCn1sc(Cl)c(Cl)c1=O [DCOIT, 4,5-dichloro-2-n-octyl-4-isothiazolin-3-one] | 75% | 1500 ppm | 82.5% | 750 ppm | 80% | 750 ppm | 70% | 1500 ppm | 72.5% | 1500 ppm | 87.5% | 5000 ppm | 77.5% | 2500 ppm | 67.5% | 5000 ppm | 32.5% | 5000 ppm | 82.5% | 2500 ppm
2 | Cc1ccc(S(=O)(=O)C(I)I)cc1 [DIMTS, diiodomethyl-p-tolylsulfone] | 85% | 1500 ppm | 80% | 5000 ppm | 80% | 1500 ppm | 70% | 2500 ppm | 62.5% | 2500 ppm | 77.5% | 2500 ppm | 77.5% | 2500 ppm | 72.5% | 750 ppm | 50% | 750 ppm | 82.5% | 1500 ppm
3 | CN(C)C(=O)Nc1cccc(C(F)(F)F)c1 [Fluometuron, 1,1-dimethyl-3-(α,α,α-trifluoro-m-tolyl)urea] | 100% and 95% and 90% | 750 ppm | 100% and 90% and 85% | 750 ppm | 95% and 62.5% and 82.5% |  | 100% and 90.00% and 80% |  | 95% and 82.5% and 62.5% | 750 ppm and 1500 ppm |  | 2500 ppm and 5000 ppm |  | 2500 ppm and 5000 ppm |  | 2500 ppm and 5000 ppm | 65% | 5000 ppm |  | 2500 ppm and 5000 ppm
